Results reported in ChEMBL document CHEMBL4359843, “Linear and Rationally Designed Stapled Peptides Abrogate TLR4 Pathway and Relieve Inflammatory Symptoms in Rheumatoid Arthritis Rat Model” (J Med Chem, 2019).
Blank lines part the entries; values can stand above or below the molecule they belong to. Activity calls are given as the source filed them. No cut-off for these calls is given here. Where a SMILES comes first, the peptide text is derived from it. Bridges are numbered along the chain shown (N, C = ends).

Tests used:
Rattus norvegicus [1] = test: Antiarthritic activity in Lewis rat model of complete Freund's adjuvant-induced arthritis assessed as increase in osteocytes within lacunae at 1 nmol/g administered intra-articularly into knee joint after 4 to 6 week by H and E staining based histopathological analysis; type: functional, organism-based
[2] = biological target: T1, Toll-like receptor 4 (Mus musculus) (UniProt Q9QUK6); test: Antagonist activity at TLR4 in mouse RAW264.7 cells assessed as reduction in LPS-induced cytosolic ROS level at 50 uM by DCF-DA staining based FACS analysis; type: cell-based
T1 sequence (whole entry): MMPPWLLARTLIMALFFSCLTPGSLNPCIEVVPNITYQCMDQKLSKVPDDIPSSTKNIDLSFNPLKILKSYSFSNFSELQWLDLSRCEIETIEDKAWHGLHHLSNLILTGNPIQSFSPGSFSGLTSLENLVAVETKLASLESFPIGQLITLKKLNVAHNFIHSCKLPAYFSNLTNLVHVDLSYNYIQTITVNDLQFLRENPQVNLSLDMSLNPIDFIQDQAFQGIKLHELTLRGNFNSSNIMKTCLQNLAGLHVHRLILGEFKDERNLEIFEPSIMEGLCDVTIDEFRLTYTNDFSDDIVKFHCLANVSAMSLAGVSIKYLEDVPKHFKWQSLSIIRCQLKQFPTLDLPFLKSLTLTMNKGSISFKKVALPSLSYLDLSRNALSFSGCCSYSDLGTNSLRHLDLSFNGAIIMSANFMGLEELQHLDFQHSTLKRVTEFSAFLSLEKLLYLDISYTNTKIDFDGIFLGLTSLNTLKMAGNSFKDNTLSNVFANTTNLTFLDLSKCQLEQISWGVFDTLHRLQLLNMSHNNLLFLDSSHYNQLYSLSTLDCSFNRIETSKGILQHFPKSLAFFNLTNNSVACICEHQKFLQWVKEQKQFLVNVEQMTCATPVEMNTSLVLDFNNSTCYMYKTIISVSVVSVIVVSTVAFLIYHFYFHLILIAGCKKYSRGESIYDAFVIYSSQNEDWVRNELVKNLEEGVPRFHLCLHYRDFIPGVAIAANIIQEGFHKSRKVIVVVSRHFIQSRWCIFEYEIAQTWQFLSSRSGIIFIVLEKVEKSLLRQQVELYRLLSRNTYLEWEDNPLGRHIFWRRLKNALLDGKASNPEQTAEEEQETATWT

Toll-like receptor 4 [3] = biological target: T2, Toll-like receptor 4 (Homo sapiens, UniProt O00206); test: Antagonist activity at TLR4 in human THP1 cells assessed as reduction in LPS-induced ERK phosphorylation at 50 uM after 15 to 30 mins by Western blot analysis; type: cell-based
T2 sequence (O00206 whole entry): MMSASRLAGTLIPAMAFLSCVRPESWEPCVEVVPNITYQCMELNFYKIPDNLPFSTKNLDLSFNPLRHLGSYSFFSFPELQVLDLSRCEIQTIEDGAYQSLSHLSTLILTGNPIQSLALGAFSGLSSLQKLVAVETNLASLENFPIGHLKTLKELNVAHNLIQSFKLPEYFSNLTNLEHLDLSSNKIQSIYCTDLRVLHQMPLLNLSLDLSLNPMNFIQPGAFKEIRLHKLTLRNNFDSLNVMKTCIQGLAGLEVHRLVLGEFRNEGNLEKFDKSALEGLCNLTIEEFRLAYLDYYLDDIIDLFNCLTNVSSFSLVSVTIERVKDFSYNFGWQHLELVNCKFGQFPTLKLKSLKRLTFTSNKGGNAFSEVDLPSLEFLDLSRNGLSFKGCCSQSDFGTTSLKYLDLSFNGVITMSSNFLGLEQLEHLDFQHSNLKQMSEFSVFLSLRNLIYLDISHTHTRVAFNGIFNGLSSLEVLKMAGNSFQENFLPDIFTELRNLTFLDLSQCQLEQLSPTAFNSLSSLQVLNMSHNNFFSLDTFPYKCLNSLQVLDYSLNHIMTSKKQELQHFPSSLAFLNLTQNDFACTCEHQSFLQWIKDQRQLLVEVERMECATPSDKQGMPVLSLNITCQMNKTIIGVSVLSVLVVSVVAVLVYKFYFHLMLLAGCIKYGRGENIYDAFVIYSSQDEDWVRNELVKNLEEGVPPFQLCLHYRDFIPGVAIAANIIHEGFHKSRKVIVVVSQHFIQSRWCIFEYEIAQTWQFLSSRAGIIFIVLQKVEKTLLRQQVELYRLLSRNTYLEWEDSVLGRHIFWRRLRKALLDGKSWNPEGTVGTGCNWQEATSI

Toll-like receptor 4 [4] = biological target: T2, Toll-like receptor 4; test: Antagonist activity at TLR4 in human THP1 cells assessed as reduction in LPS-induced IL6 secretion at 50 uM after 24 hrs by ELISA; type: cell-based
Rattus norvegicus [5] = test: Antiarthritic activity in Lewis rat model of complete Freund's adjuvant-induced arthritis assessed as reduction in inflammation synovial tissues at 1 nmol/g administered intra-articularly into knee joint after 1 week by Safranin-O staining based histopathological analysis; type: functional, organism-based
Toll-like receptor 4 [6] = biological target: T2, Toll-like receptor 4; test: Antagonist activity at TLR4 in human THP1 cells assessed as reduction in LPS-induced ATF3 activation at 50 uM after 120 to 240 mins by Western blot analysis; type: cell-based
RAW264.7 [7] = test: Cytotoxicity against mouse RAW264.7 cells assessed as reduction in cell viability at 100 uM after 24 hrs by MTT assay; type: cell-based; settings: raw264.7, 24 h
[8] = biological target: T1, Toll-like receptor 4 (Mus musculus); test: Antagonist activity at TLR4 in mouse RAW264.7 cells assessed as reduction in LPS-induced cytosolic ROS level at 80 uM by DCF-DA staining based FACS analysis; type: cell-based
[9] = biological target: T1, Toll-like receptor 4 (Mus musculus); test: Antagonist activity at TLR4 in mouse RAW264.7 cells assessed as reduction in LPS-induced IkappaBalpha cytosolic degradation at 80 uM after 15 to 30 mins by Western blot analysis; type: cell-based
Mus musculus [10] = test: Antiinflammatory activity in C57BL/6J mouse assessed as reduction in LPS-induced IL6 secretion at 70 nmol/g, ip pretreated for 1 hr followed by LPS challenge and measured after 2 hrs by ELISA; type: functional, organism-based
Toll-like receptor 4 [11] = biological target: T2, Toll-like receptor 4; test: Antagonist activity at TLR4 in human PBMC cells assessed as reduction in LPS-induced JNK phosphorylation at 80 uM after 15 to 30 mins by Western blot analysis; type: cell-based
Toll-like receptor 4 [12] = biological target: T2, Toll-like receptor 4; test: Antagonist activity at human TLR4 expressed in HEK-Blue cells assessed as reduction in LPS-induced SEAP activity pre-incubated for 1 hr followed by LPS stimulation and measured after 24 hrs by SEAP assay; type: cell-based
[13] = biological target: T1, Toll-like receptor 4 (Mus musculus); test: Antagonist activity at TLR4 in mouse RAW264.7 cells assessed as reduction in LPS-induced extracellular NO secretion at 20 to 80 uM by spectrophotometric method; type: cell-based
[14] = biological target: T1, Toll-like receptor 4 (Mus musculus); test: Antagonist activity at TLR4 in mouse RAW264.7 cells assessed as reduction in LPS-induced IRF3 phosphorylation at 80 uM after 120 to 240 mins by Western blot analysis; type: cell-based
[15] = biological target: T1, Toll-like receptor 4 (Mus musculus); test: Antagonist activity at TLR4 in mouse BMDM cells assessed as reduction in LPS-induced IFNbeta secretion at 20 to 80 uM after 24 hrs by ELISA; type: cell-based
TLR2/TLR6 (Homo sapiens) [16] = biological target: T3, TLR2/TLR6 (Homo sapiens) (UniProt O60603+Q9Y2C9); test: Antagonist activity at TLR2/6 in human PBMC cells assessed as reduction in FSL-1-induced TNFalpha secretion at 20 to 80 uM after 24 hrs by ELISA; type: cell-based
[17] = biological target: T1, Toll-like receptor 4 (Mus musculus); test: Antagonist activity at TLR4 in mouse RAW264.7 cells assessed as reduction in LPS-induced NFkappaB p65 phosphorylation at 80 uM preincubated for 1 hr followed by LPS stimulation and measured after 30 mins by Alexafluor-488/Hoechst 33258 staining based immunofluorescence confocal microscopic method; type: cell-based
RAW264.7 [18] = test: Cytotoxicity against mouse RAW264.7 cells assessed as reduction in cell viability at 20 to 80 uM after 24 hrs by MTT assay; type: cell-based; settings: raw264.7, 24 h
[19] = biological target: T1, Toll-like receptor 4 (Mus musculus); test: Antagonist activity at TLR4 in mouse BMDM cells assessed as reduction in LPS-induced IL6 secretion at 20 to 80 uM after 24 hrs by ELISA; type: cell-based
TLR2/TLR6 (Homo sapiens) [20] = biological target: T3, TLR2/TLR6 (Homo sapiens); test: Antagonist activity at TLR2/6 in human PBMC cells assessed as reduction in FSL-1-induced IL6 secretion at 20 to 80 uM after 24 hrs by ELISA; type: cell-based
Mus musculus [21] = test: Antiinflammatory activity in C57BL/6J mouse assessed as reduction in LPS-induced TNFalpha secretion at 70 nmol/g, ip pretreated for 1 hr followed by LPS challenge and measured after 2 hrs by ELISA; type: functional, organism-based
[22] = biological target: T1, Toll-like receptor 4 (Mus musculus); test: Antagonist activity at TLR4 in mouse RAW264.7 cells assessed as reduction in LPS-induced NFkappaB p65 phosphorylation at 80 uM after 15 to 30 mins by Western blot analysis; type: cell-based
Toll-like receptor 4 [23] = biological target: T2, Toll-like receptor 4; test: Antagonist activity at TLR4 in human PBMC cells assessed as reduction in LPS-induced IkappaBalpha degradation at 80 uM after 15 to 30 mins by Western blot analysis; type: cell-based
[24] = biological target: T1, Toll-like receptor 4 (Mus musculus); test: Antagonist activity at TLR4 in mouse RAW264.7 cells assessed as reduction in LPS-induced iNOS expression at 80 uM by Western blot analysis; type: cell-based

Activity [2]: Active | Activity (Toll-like receptor 4 [3]): Active | Activity (Toll-like receptor 4 [4]): Active | Activity (Toll-like receptor 4 [6]): Active
Molecule: CC[C@H](C)[C@@H]1NC(=O)[C@H](Cc2c[nH]c3ccccc23)NC(=O)[C@H](Cc2c[nH]c3ccccc23)NC(=O)[C@@H](NC(=O)[C@H](CO)NC(=O)[C@H](Cc2ccccc2)NC(=O)[C@@H](NC(=O)CNC(=O)[C@@H](N)CC(C)C)C(C)C)CC(=O)NCCCC[C@@H](C(=O)N[C@@H](CC(C)C)C(=O)N[C@H](C(=O)O)C(C)C)NC1=O (H-LGVFSDWWIKLV-OH; lactam 6-10)
Activity (Rattus norvegicus [1]): Active | Activity (Rattus norvegicus [5]): Active

Activity [8]: Active | Activity [9]: Active | Activity (Toll-like receptor 4 [11]): Active | Activity (Toll-like receptor 4 [12]): Dose-dependent effect | Activity [13]: Active | Activity [14]: Active | Activity [15]: Active | Activity (TLR2/TLR6 (Homo sapiens) [16]): inactive | Activity [17]: Active | Activity [19]: Active | Activity (TLR2/TLR6 (Homo sapiens) [20]): inactive | Activity [22]: Active | Activity (Toll-like receptor 4 [23]): Active | Activity [24]: Active
Molecule: H-LGVFSSWWIKLV-OH
Activity (RAW264.7 [7]): Toxic | Activity (Mus musculus [10]): Active | Activity (RAW264.7 [18]): Non-Toxic | Activity (Mus musculus [21]): Active
